In patent US9565840B2, “Fibrotic non-human animal, and use thereof” (KYOTO UNIVERSITY, priority 2012, dated 2017):
Residues, ends and D or L forms follow the SMILES beside them. *: point of attachment. Cbz = O=C(OCc1ccccc1)*

System: IKKβ
Experiment: IKKβ level in fibroblasts from the skin of scleroderma patients, MG132 pre-treatment before IL-1β stimulation
Type: cell-based, human
Conditions: fibroblast from the skin of scleroderma patients; 2 μM MG132 for 2 hr before IL-1β (2.5 ng/mL, 60 min) stimulation; FIG. 11-3
Protocol: The skin of scleroderma patients (n=5) and healthy individual (n=5) was collected by biopsy, and fibroblast was prepared. The fibroblast was cultured in DMEM medium added with L-glutamine, penicillin/streptomycin and 10% FCS at 37° C., 5% CO2 concentration. After culture, nuclear protein was extracted from the fibroblast by using NE-PER nuclear protein cytoplasmic protein separation extraction kit (Thermo Scientific), and the p65 protein levels of the whole-cell lysate and nuclear extract were compared. RNA was isolated from the fibroblast by using RNA aqueous (trade mark) kit (Applied Biosytems (trade mark)), and the p65 mRNA level was compared using TaqMan (registered trade mark) Gene Expression Assays kit (Applied Biosytems (trade mark)). The NFκB activity of the fibroblast was measured by NFκB p65 Transcription Assay Kit (Thermo Scientific) and compared. […] Further, fibroblasts from the skin of scleroderma patients were stimulated for 60 min with IL-1β (2.5 ng/mL), and IKKβ and nuclear p65 protein amounts were compared. […] In addition, fibroblast from the skin of scleroderma patients was treated with 2 μM MG132 for 2 hr before the aforementioned IL-β stimulation, and the IKKβ level was measured.

CC(C)C[C@@H](C=O)NC(=O)[C@H](CC(C)C)NC(=O)[C@H](CC(C)C)NC(=O)OCc1ccccc1 [MG132] (Cbz-Leu-Leu-Leu-aldehyde)
IKKβ level: recovered the IKKβ level
